Target: truncated Polθ protein (Polθ-Hel containing the helicase domain (67-894)) (Homo sapiens (Human), UniProt O75417)
Assay: Polθ ATPase assay (Biological Assay 1, ADP-Glo luminescence)
Assay type: biochemical
Conditions: Polθ-Hel 0.5 nM, DNA substrate 500 nM, ATP 60 μM, 23° C.; read-out: Pole ATPase assay IC50
Experimental: The Polθ ATPase assay was used to evaluate inhibitors of Polθ ATPase activity, in vitro. Experiments were performed using a truncated Polθ protein (Polθ-Hel containing the helicase domain (67-894), ATP and a DNA single strand Oligo (5′-CTGTCCTGCATGATG-3′) in the Polθ assay buffer (20 mM Tis-HCl (pH 8.8), MgCl2 5 mM, tween20 0.01%, NP40 0.01%, BSA 0.01%, DTT 1 mM). 2 μL of assay buffer containing Pole-Hel protein (0.5 nM) and DNA substrate (500 nM) was transferred into assay ready plates, containing 0.04 μL of compounds diluted in DMSO. After a 30 minutes incubation at 23° C. in the dark, the reaction was triggered by adding 2 μL of ATP (60 μM), in assay buffer. After 60 minutes at 23° C., 4 μl of ADP-Glo™ Reagent (Glo 1) was added followed by 40 minutes of incubation, then 8 μl of ADP-Glom kinase Detection Reagent (Glo 2) followed by 60 minutes of incubation at 23° C. Luminescence was then measured using Tecan F200 infinite plate reader. Raw data were analysed using GeneData to generate IC50 values.
The Polθ ATPase assay described in Biological Assay 1 above was used to evaluate inhibitors of Polθ ATPase activity for the compounds described in the Experimental Part B above, in vitro.

truncated Polθ protein (Polθ-Hel containing the helicase domain (67-894)), sequence (O75417 67-894): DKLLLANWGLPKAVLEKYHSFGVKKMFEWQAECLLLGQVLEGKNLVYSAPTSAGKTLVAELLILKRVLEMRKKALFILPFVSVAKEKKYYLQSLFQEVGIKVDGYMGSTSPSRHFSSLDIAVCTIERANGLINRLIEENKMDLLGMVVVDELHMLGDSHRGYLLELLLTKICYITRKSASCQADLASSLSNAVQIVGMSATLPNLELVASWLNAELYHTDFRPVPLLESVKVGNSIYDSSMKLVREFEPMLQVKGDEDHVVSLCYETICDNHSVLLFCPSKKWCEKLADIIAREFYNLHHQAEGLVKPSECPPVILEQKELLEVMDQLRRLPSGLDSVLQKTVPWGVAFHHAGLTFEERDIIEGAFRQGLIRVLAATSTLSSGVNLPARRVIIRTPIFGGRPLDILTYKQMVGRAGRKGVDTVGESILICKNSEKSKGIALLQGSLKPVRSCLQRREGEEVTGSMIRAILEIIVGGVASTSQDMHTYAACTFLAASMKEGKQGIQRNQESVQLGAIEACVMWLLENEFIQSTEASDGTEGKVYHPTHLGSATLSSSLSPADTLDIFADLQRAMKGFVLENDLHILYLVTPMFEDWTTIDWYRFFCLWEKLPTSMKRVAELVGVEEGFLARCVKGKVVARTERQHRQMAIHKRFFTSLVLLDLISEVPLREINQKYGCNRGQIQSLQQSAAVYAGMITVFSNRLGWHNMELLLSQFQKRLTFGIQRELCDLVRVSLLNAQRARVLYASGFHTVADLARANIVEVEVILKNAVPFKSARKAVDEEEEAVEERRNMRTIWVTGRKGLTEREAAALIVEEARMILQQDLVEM

Compound	IC50 [nM]
COc1cnc(Cl)cc1-c1cc(C)ncc1C(=O)Nc1nc2cnc(N3CCN(C(C)=O)CC3)nc2s1 [Example 45, N-[5-(4-acetylpiperazin-1-yl)-[1,3]thiazolo[5,4-d]pyrimidin-2-yl]-2′-chloro-5′-methoxy-6-methyl-[4,4′-bipyridine]-3-carboxamide]	< 100
COc1cnc(Cl)cc1-c1cc(C)ncc1C(=O)Nc1nc2ccc(Br)cc2s1 [Example 5, N-(6-bromo-1,3-benzothiazol-2-yl)-2′-chloro-5′-methoxy-6-methyl-[4,4′-bipyridine]-3-carboxamide]	< 100
COc1cnc(Cl)cc1-c1cc(C)ncc1C(=O)Nc1nc2cnc(N3CC4CCC(C3)N4)nc2s1 [Example 54, 2′-chloro-N-(5-{3,8-diazabicyclo[3.2.1]octan-3-yl}-[1,3]thiazolo[5,4-d]pyrimidin-2-yl)-5′-methoxy-6-methyl-[4,4′-bipyridine]-3-carboxamide]	< 100
COc1cnc(Cl)cc1-c1cc(C)ncc1C(=O)Nc1nc2ccc(S(C)(=O)=O)cc2s1 [Example 2, 2′-chloro-N-(6-methanesulfonyl-1,3-benzothiazol-2-yl)-5′-methoxy-6-methyl-[4,4′-bipyridine]-3-carboxamide]	< 100
COc1cnc(Cl)cc1-c1cc(C)ncc1C(=O)Nc1nc2ccc(N3CCCCC3=O)cc2s1 [Example 36B, 2′-chloro-5′-methoxy-6-methyl-N-[6-(2-oxopiperidin-1-yl)-1,3-benzothiazol-2-yl]-[4,4′-bipyridine]-3-carboxamide]	< 100
COc1ccccc1-c1cnccc1C(=O)Nc1nc2cccnc2s1 [Example 14, 3-(2-methoxyphenyl)-N-{[1,3]thiazolo[5,4-b]pyridin-2-yl}pyridine-4-carboxamide]	> 1000
COc1cnc(Cl)cc1-c1cc(C)ncc1C(=O)Nc1nc2cnc(NCCO)nc2s1 [Example 46, 2′-chloro-N-{5-[(2-hydroxyethyl)amino]-[1,3]thiazolo[5,4-d]pyrimidin-2-yl}-5′-methoxy-6-methyl-[4,4′-bipyridine]-3-carboxamide]	< 100
COc1ccccc1-c1cnccc1C(=O)Nc1nc2cnccc2s1 [Example 10, 3-(2-methoxyphenyl)-N-{[1,3]thiazolo[4,5-c]pyridin-2-yl}pyridine-4-carboxamide]	> 1000
COc1cnc(Cl)cc1-c1cc(C)ncc1C(=O)Nc1nc2cncnc2s1 [Example 42, 2′-chloro-5′-methoxy-6-methyl-N-{[1,3]thiazolo[5,4-d]pyrimidin-2-yl}-[4,4′-bipyridine]-3-carboxamide]	< 100
COc1cnc(F)cc1-c1cc(C)ncc1C(=O)Nc1nc2cnc(N3CCOCC3)nc2s1 [Example 93, 2′-fluoro-5′-methoxy-6-methyl-N-[5-(morpholin-4-yl)-[1,3]thiazolo[5,4-d]pyrimidin-2-yl]-[4,4′-bipyridine]-3-carboxamide]	< 100
COc1cnc(Cl)cc1-c1cc(C)ncc1C(=O)Nc1nc2cnc(Cl)nc2s1 [Example 6, 2′-chloro-N-{5-chloro-[1,3]thiazolo[5,4-d]pyrimidin-2-yl}-5′-methoxy-6-methyl-[4,4′-bipyridine]-3-carboxamide]	< 100
COc1cnc(Cl)cc1-c1cc(C)ncc1C(=O)Nc1nc2cnc(N3CCCC3)nc2s1 [Example 24, 2′-chloro-5′-methoxy-6-methyl-N-[5-(pyrrolidin-1-yl)-[1,3]thiazolo[5,4-d]pyrimidin-2-yl]-[4,4′-bipyridine]-3-carboxamide]	< 100
COc1cnc(Cl)cc1-c1cc(C)ncc1C(=O)Nc1nc2cnc(N3CCOC[C@@H]3C)nc2s1 [Example 51, 2′-chloro-5′-methoxy-6-methyl-N-{5-[(3S)-3-methylmorpholin-4-yl]-[1,3]thiazolo[5,4-d]pyrimidin-2-yl}-[4,4′-bipyridine]-3-carboxamide]	< 100
COc1cnc(Cl)cc1-c1cc(C)ncc1C(=O)Nc1nc2ccc(N3CCOC3=O)cc2s1 [Example 59, 2′-chloro-5′-methoxy-6-methyl-N-[6-(2-oxo-1,3-oxazolidin-3-yl)-1,3-benzothiazol-2-yl]-[4,4′-bipyridine]-3-carboxamide]	< 100

Same assay, conditions: Table B; compounds of Experimental Part B, in vitro; read-out: Polθ ATPase assay IC50

Compound	IC50 [nM]
COc1cnc(C(F)(F)F)cc1-c1cc(CC(=O)N(C)C)ncc1C(=O)Nc1nc2cncnc2s1 [Example 116, 6-[(dimethylcarbamoyl)methyl]-5′-methoxy-N-{[1,3]thiazolo[5,4d]pyrimidin-2-yl}-2′-(trifluoromethyl)-[4,4′-bipyridine]-3-carboxamide]	< 100
COc1cnc(Cl)cc1-c1cc(C)ncc1C(=O)Nc1nc2cnc(NCCCCC(=O)O)cc2s1 [Example 119, 5-[(2-{2′-chloro-5′-methoxy-6-methyl-[4,4′-bipyridine]-3-amido}-[1,3]thiazolo[4,5-c]pyridin-6-yl)amino]pentanoic acid]	< 100
COc1cnc(Cl)cc1-c1cc(C)ncc1C(=O)Nc1nc2cnc(N3CC(C)(OC)C3)nc2s1 [Example 97, 2′-chloro-5′-methoxy-N-[5-(3-methoxy-3-methylazetidin-1-yl)-[1,3]thiazolo[5,4-d]pyrimidin-2-yl]-6-methyl-[4,4′-bipyridine]-3-carboxamide]	< 100
COc1cnc(Cl)cc1-c1cc(C)ncc1C(=O)Nc1nc2cnc(NCC(C)(C)O)cc2s1 [Example 130, 2′-chloro-N-{6-[(2-hydroxy-2-methylpropyl)amino]-[1,3]thiazolo[4,5-c]pyridin-2-yl}-5′-methoxy-6-methyl-[4,4′-bipyridine]-3 carboxamide]	< 100
COc1cnc(Cl)cc1-c1cc(C)ncc1C(=O)Nc1nc2cc(O)ccc2s1 [Example 122, 2′-chloro-N-(5-hydroxy-1,3-benzothiazol-2-yl)-5′-methoxy-6-methyl-[4,4′-bipyridine]-3-carboxamide]	< 100
CNC(=O)C(F)(F)Oc1ccc2sc(NC(=O)c3cnc(C)cc3-c3cc(Cl)ncc3OC)nc2c1 [Example 102, 2′-chloro-N-{5-[difluoro(methylcarbamoyl)Methoxy]-1,3-benzothiazol-2-yl}-5′-methoxy-6-methyl-[4,4′-bipyridine]-3-carboxamide]	< 100
COc1cnc(Cl)cc1-c1cc(C)ncc1C(=O)Nc1nc2cc(OCC3CCN(C(C)=O)CC3)ccc2s1 [Example 109, N-{5-[(1-acetylpiperidin-4-yl)methoxy]-1,3-benzothiazol-2-yl}-2′-chloro-5′-methoxy-6-methyl-[4,4′-bipyridine]-3-carboxamide]	< 100
COc1cnc(Cl)cc1-c1cc(C)ncc1C(=O)Nc1nc2cc(OCC3CS(=O)(=O)C3)ccc2s1 [Example 113, 2′-chloro-N-{5-[(1,1-dioxo-1-λ6-thietan-3-yl)methoxy]-1,3-benzothiazol-2-yl}-5′-methoxy-6-methyl-[4,4′-bipyridine]-3-carboxamide]	100 to 1000
CNC(=O)c1ccc2sc(NC(=O)c3cnc(C)cc3-c3cc(Cl)ncc3OC)nc2c1 [Example 105, 2′-chloro-5′-methoxy-6-methyl-N-[5-(methylcarbamoyl)-1,3-benzothiazol-2-yl]-[4,4′-bipyridine]-3-carboxamide]	< 100
COc1cnc(Cl)cc1-c1cc(C)ncc1C(=O)Nc1nc2cc(OC(C)C)ccc2s1 [Example 112, 2′-chloro-5′-methoxy-6-methyl-N-[5-(propan-2-yloxy)-1,3-benzothiazol-2-yl]-[4,4′-bipyridine]-3-carboxamide]	< 100
COc1cnc(C)cc1-c1cc(C)ncc1C(=O)Nc1nc2cnc(N3CCC(O)CC3)nc2s1 [Example 117, N-[5-(4-hydroxypiperidin-1-yl)-[1,3]thiazolo[5,4-d]pyrimidin-2-yl]-5′-methoxy-2′,6-dimethyl-[4,4′-bipyridine]-3-carboxamide]	< 100
COc1cnc(Cl)cc1-c1cc(C)ncc1C(=O)Nc1nc2c(OCC#N)ncnc2s1 [Example 126, 2′-chloro-N-[7-(cyanomethoxy)-[1,3]thiazolo[5,4-d]pyrimidin-2-yl]-5′-methoxy-6-methyl-[4,4′-bipyridine]-3-carboxamide]	< 100
COc1cnc(Cl)cc1-c1cc(C)ncc1C(=O)Nc1nc2c(OCC(N)=O)ncnc2s1 [Example 127, N-[7-(carbamoylmethoxy)-[1,3]thiazolo[5,4-d]pyrimidin-2-yl]-2′-chloro-5′-methoxy-6-methyl-[4.4′-bipyridine]-3-carboxamide]	< 100
COc1cnc(Cl)cc1-c1cc(C)ncc1C(=O)Nc1nc2ccc(NCCCCC(=O)O)nc2s1 [Example 120, 5-[(2-{2′-chloro-5′-methoxy-6-methyl-[4,4′-bipyridine]-3-amido}-[1,3]thiazolo[5,4-b]pyridin-5-yl)amino]pentanoic acid]	< 100
COc1cnc(Cl)cc1-c1cc(C)ncc1C(=O)Nc1nc2c(C)nc(N3CCC(O)CC3)nc2s1 [Example 132, 2′-chloro-N-[5-(4-hydroxypiperidin-1-yl)-7-methyl-[1,3]thiazolo[5,4-d]pyrimidin-2-yl]-5′-methoxy-6-methyl-[4,4′-bipyridine]-3-carboxamide]	< 100
